Experimental data: patent US20120309699A1, “COMPOUNDS HAVING ANTI-INFLAMMATORY ACTIVITY” (Consejo Superior de Investigaciones Cientificas (CSIC), priority 2009, published 2012)

Key:
[1] = system: enterobacteria; assay: Microbiota counts in feces: enterobacteria; assay type: in vivo, mice; conditions: after administration of DSS; HED 10 mg
Experimental: (§1) A model for intestinal inflammation based on the administration of DSS (sodium dextran sulfate) to C57BL/6 mice was used. At the present time there is no consensus about which overall is the best model for experimental colitis. The DSS model has been widely used because it has clinical, morphological and analytical characteristics which up to a point are similar to those specific to patients with ulcerative colitis or Crohn's disease.
The in vivo inflammation test was carried out using duplicates separated by a number of months. In each test each group of animals (n=8) was fed a standard diet supplemented with 2.3 mg/day/kg (animal weight) of each of the compounds, depending upon the group. This dose assumes the ingestion of 0.05 mg/day (50 μg/day) per mouse (having a mean weight of 22 grams). This dose extrapolated to a human being is equivalent to 10 mg in an adult weighing 70 kg; using the formula HED (human equivalent dose)=animal dose in mg/kg×(animal weight kg/human weight in kg)^0.33. […]
• Monitoring of weight, food and drink ingestion. The mice in all groups were individually monitored, with weight, quantity of food ingested and water drunk each day being monitored throughout the experimental test. • Blood and water in feces. The water content of feces, as an indication of diarrhea, was evaluated using the difference in weight following evaporation in a stove. Blood was measured using reactive strips based on the guaiacol-peroxidase reaction (HealthCare Diagnosis Inc.). […] The reaction was measured using a scale from 0 (negative result) to 4 (most intense color change). • Length of colon. After sacrifice the colon was obtained from each mouse, extended and measured. […] This was evaluated by spectrophotometry at 460 nm using O-dianisidine reagent and hydrogen peroxide. The change in absorbance at 460 nm was monitored over 10 minutes in a V-630 spectrophotometer (Jasco, Tokyo, Japan). […] Levels of PGE2 were measured in colonic mucosa homogenates using an immunoenzyme method using a Cayman Chem. kit (USA). • “Antibody array”. […] The signal was detected by chemoluminescence. […]

[2] = system: lactobacilli; assay: Microbiota counts in feces: lactobacilli; assay type: in vivo, mice; conditions: pre-treatment, maintained after DSS; HED 10 mg
Experimental: as §1
The in vivo inflammation test was carried out using duplicates separated by a number of months. In each test each group of animals (n=8) was fed a standard diet supplemented with 2.3 mg/day/kg (animal weight) of each of the compounds, depending upon the group. […]
• Monitoring of weight, food and drink ingestion. The mice in all groups were individually monitored, with weight, quantity of food ingested and water drunk each day being monitored throughout the experimental test. • Blood and water in feces. The water content of feces, as an indication of diarrhea, was evaluated using the difference in weight following evaporation in a stove. Blood was measured using reactive strips based on the guaiacol-peroxidase reaction (HealthCare Diagnosis Inc.). […] The reaction was measured using a scale from 0 (negative result) to 4 (most intense color change). • Length of colon. After sacrifice the colon was obtained from each mouse, extended and measured. […]

[3] = system: Listeria monocytogenes Scott A; assay: Adhesion of L. monocytogenes to Caco-2 cells; assay type: cell-based, human; conditions: Caco-2, 25 μM/well; in comparison with resveratrol and the other derivatives
Experimental: (§2) We used two cell models for colon cancer to evaluate the anti-adhesion capacity of compounds derived from resveratrol against pathogenic bacteria in food: Caco-2 (a model frequently used to measure the adhesion of microorganisms) and HT-29 (a model frequently used to measure immune response to infections by enteropathogens). Caco-2 and HT-29 cells were grown in EMEM and DMEM respectively, for which 24 well plates were used at 37° C., 5% CO2, 95% air until a single layer of confluent epithelium formed (cell concentration per well 2×10^5 and 6×10^5 respectively). Pathogenic bacteria (E. coli O157, Salmonella and Listeria monocytogenes Scott A) were placed in contact with the various compounds derived from resveratrol for 1 hour and subsequently the bacteria together with the different compounds in a concentration of 25 μM/well were inoculated on the cell cultures, incubating the plates for 2 hours at 37° C., 5% CO2, 95% air. The plates were then washed 3 times with 1 ml of sterile PBS and 1 ml of distilled water with 20% of glycerol was added, and they were frozen at −70° C. to lyse the epithelial cells. […] Concentrations of the various derivatives tested were detected in the digestive tracts of experimental animals and therefore the test lay within the range of physiologically achievable concentrations.

[4] = system: Salmonella; assay: Adhesion of Salmonella to Caco-2 cells; assay type: cell-based, human; conditions: Caco-2, 25 μM/well; in comparison with resveratrol and the other derivatives
Experimental: as §2

[5] = system: fibrinogen; assay: Systemic inflammation marker fibrinogen (DSS model); assay type: in vivo, mice; conditions: vs DSS group; HED 10 mg
Experimental: as §1
The in vivo inflammation test was carried out using duplicates separated by a number of months. In each test each group of animals (n=8) was fed a standard diet supplemented with 2.3 mg/day/kg (animal weight) of each of the compounds, depending upon the group. This dose assumes the ingestion of 0.05 mg/day (50 μg/day) per mouse (having a mean weight of 22 grams). This dose extrapolated to a human being is equivalent to 10 mg in an adult weighing 70 kg; using the formula HED (human equivalent dose)=animal dose in mg/kg×(animal weight kg/human weight in kg)^0.33.
In each test the mice were fed for 3 weeks during which 1% DSS was included in their drink. The DSS was maintained for 8 days (and the same food as from the start). Then the DSS was withdrawn and the animals were allowed to recover for another 6 days (again with the same food).
• Monitoring of weight, food and drink ingestion. The mice in all groups were individually monitored, with weight, quantity of food ingested and water drunk each day being monitored throughout the experimental test. • Blood and water in feces. The water content of feces, as an indication of diarrhea, was evaluated using the difference in weight following evaporation in a stove. Blood was measured using reactive strips based on the guaiacol-peroxidase reaction (HealthCare Diagnosis Inc.). […] The reaction was measured using a scale from 0 (negative result) to 4 (most intense color change). • Length of colon. After sacrifice the colon was obtained from each mouse, extended and measured. […] This was evaluated by spectrophotometry at 460 nm using O-dianisidine reagent and hydrogen peroxide. The change in absorbance at 460 nm was monitored over 10 minutes in a V-630 spectrophotometer (Jasco, Tokyo, Japan). MPO activity was expressed as mU of activity/mg of fresh tissue, comparing the increase in absorbance with a standard straight line obtained using leukocyte myeloperoxidase (Sigma). • Prostaglandins in colonic mucosa. Levels of PGE2 were measured in colonic mucosa homogenates using an immunoenzyme method using a Cayman Chem. kit (USA). • “Antibody array”. […] The signal was detected by chemoluminescence. […] Signal intensities (densitometry) were analyzed using ScanAlyze software. […] The changes in cytokine levels were expressed as mean±SD in arbitrary density units. […]

Structure (SMILES) | Enterobacteria count in feces [1] | Population of lactobacilli in feces [2] | Anti-adhesion efficacy in respect of L. monocytogenes [3] | Anti-adhesion efficacy in respect of Salmonella [4] | Blood fibrinogen levels [5]
CCCC(=O)OCC1OC(Oc2cc(O)cc(/C=C/c3ccc(O)cc3)c2)C(O)C(O)C1O [BUT, trans-resveratrol-3-O-(6′-O-butanoyl)-β-D-glucopyranoside] | clear reduction | increases the population | greater anti-adhesion efficacy | greater anti-adhesion efficacy | most notable differences
CCCCCCCC(=O)OCC1OC(Oc2cc(O)cc(/C=C/c3ccc(O)cc3)c2)C(O)C(O)C1O [OCT, trans-resveratrol-3-O-(6′-O-octanoyl)-β-D-glucopyranoside] | clear reduction | increases the population | greater anti-adhesion efficacy | greater anti-adhesion efficacy | most notable differences
